Results from ChEMBL document CHEMBL2311336 (Bioorg Med Chem Lett, 2013).

What follows are compounds tested against E3 ubiquitin-protein ligase Mdm2 (Homo sapiens, UniProt Q00987, L33E) (assay: Inhibition of human His-tagged p53 (1 to 132 amino acid residues)/GST-tagged MDM2 L33E mutant (25 to 108 amino acid residues) interaction by HTRF assay).
Sequence of E3 ubiquitin-protein ligase Mdm2 (Q00987 whole entry L33E, the tested form may be a part): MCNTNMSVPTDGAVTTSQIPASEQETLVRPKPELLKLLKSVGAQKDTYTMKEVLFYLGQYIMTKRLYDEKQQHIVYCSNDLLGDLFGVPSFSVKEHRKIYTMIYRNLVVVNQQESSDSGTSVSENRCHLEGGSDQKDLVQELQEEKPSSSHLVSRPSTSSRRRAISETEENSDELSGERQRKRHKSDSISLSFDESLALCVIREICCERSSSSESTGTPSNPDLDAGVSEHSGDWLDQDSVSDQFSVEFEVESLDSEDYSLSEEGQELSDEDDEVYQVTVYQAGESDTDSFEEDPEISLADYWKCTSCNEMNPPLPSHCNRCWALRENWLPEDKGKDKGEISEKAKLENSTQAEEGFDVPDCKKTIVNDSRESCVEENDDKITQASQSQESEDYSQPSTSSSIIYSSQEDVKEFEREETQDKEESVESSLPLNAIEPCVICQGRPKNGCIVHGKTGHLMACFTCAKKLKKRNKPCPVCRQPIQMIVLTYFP

Question: `CC(C)C1=C(C(=O)N2CC[C@H]2C(=O)N(C)C)SC2=N[C@@](C)(c3ccc(Cl)cc3)[C@@H](c3ccc(Cl)cc3)N21` was tested. Which IC50 did it give?
Answer: Its IC50 is 140 nM.

These compounds were tested against Tumour suppressor p53/oncoprotein Mdm2 (Homo sapiens, UniProt Q00987) (assay: Inhibition of human His-tagged p53/GST-tagged MDM2 interaction after 60 mins by chemiluminescence assay).
Sequence of Tumour suppressor p53/oncoprotein Mdm2 (P04637 whole entry): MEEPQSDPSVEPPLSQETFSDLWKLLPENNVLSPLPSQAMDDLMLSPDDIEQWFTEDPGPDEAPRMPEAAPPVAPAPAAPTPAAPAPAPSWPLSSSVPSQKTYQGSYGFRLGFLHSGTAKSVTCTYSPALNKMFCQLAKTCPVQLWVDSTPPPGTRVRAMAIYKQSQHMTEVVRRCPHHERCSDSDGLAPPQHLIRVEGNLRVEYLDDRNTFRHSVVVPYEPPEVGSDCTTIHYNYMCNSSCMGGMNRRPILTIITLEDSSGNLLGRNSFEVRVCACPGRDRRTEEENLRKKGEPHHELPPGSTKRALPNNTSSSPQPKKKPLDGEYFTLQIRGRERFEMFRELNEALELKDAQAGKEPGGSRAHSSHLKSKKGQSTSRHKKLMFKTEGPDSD
Sequence of Tumour suppressor p53/oncoprotein Mdm2 (Q00987 whole entry): as the sequence (Q00987 whole entry L33E, the tested form may be a part) above, with E33L counted along it
Format: protein assay

Question: `CC(C)C1=C(C(=O)N2CCNC(=O)C2)SC2=N[C@@](C)(c3ccc(Cl)cc3)[C@@H](c3ccc(Cl)cc3)N21` was tested. Which IC50 did it give?
Answer: Its IC50 is 92 nM.

Question: With `CC(C)C1=C(C(=O)N(C)C)SC2=NC(C)(c3ccc(Cl)cc3)C(c3ccc(Cl)cc3)N21` (racemic) as the compound, how does the IC50 read?
Answer: Its IC50 is 42 nM.

Question: For `CC(C)C1=C(C(=O)N2CCCC2)SC2=NC(C)(c3ccc(Cl)cc3)C(c3ccc(Cl)cc3)N21` (racemic), which IC50 is on record?
Answer: The IC50 was 200 nM.

Question: Which IC50 does the source give for `CC(C)C1=C(C(=O)N2CNC(=O)C2)SC2=NC(C)(c3ccc(Cl)cc3)C(c3ccc(Cl)cc3)N21` (racemic) here?
Answer: The IC50 was 940 nM.

Question: With `CC(C)C1=C(C(N)=O)SC2=NC(C)(c3ccc(Cl)cc3)C(c3ccc(Cl)cc3)N21` (racemic) as the compound, how does the IC50 read?
Answer: The IC50 was 780 nM.

Question: Which IC50 does the source give for `CC(C)C1=C(C(=O)N2CCC[C@H]2C(=O)N2CCN(C)CC2)SC2=N[C@@](C)(c3ccc(Cl)cc3)[C@@H](c3ccc(Cl)cc3)N21` here?
Answer: Its IC50 is 23 nM.

Question: Which IC50 does the source give for `COCCN(C)C(=O)[C@@H]1CCCN1C(=O)C1=C(C(C)C)N2C(=N[C@@](C)(c3ccc(Cl)cc3)[C@H]2c2ccc(Cl)cc2)S1` here?
Answer: Its IC50 is 46 nM.

Question: With `CC(C)C1=C(C(=O)N(C)C)SC2=N[C@@](C)(c3ccc(Cl)cc3)[C@@H](c3ccc(Cl)cc3)N21` as the compound, how does the IC50 read?
Answer: The IC50 was 26 nM.

Question: How did the IC50 turn out when `CC(C)C1=C(C(=O)N2CCNC(=O)C2)SC2=N[C@](C)(c3ccc(Cl)cc3)[C@H](c3ccc(Cl)cc3)N21` was run?
Answer: The IC50 was 1500 nM.

Question: Which IC50 does the source give for `CC(C)C1=C(C(=O)N2CCC[C@H]2C(=O)N2CCNC(=O)C2)SC2=N[C@@](C)(c3ccc(Cl)cc3)[C@@H](c3ccc(Cl)cc3)N21` here?
Answer: Its IC50 is 79 nM.

Question: Which IC50 does the source give for `CC(C)C1=C(C(=O)N2CCCC[C@H]2C(=O)N(C)C)SC2=NC(C)(c3ccc(Cl)cc3)C(c3ccc(Cl)cc3)N21` (mixture of isomers) here?
Answer: Its IC50 is 170 nM.

Question: With `CC(C)C1=C(C(=O)N2CCC[C@H]2C(=O)N2C[C@@H](C)N[C@@H](C)C2)SC2=N[C@@](C)(c3ccc(Cl)cc3)[C@@H](c3ccc(Cl)cc3)N21` as the compound, how does the IC50 read?
Answer: The IC50 was 37 nM.

Question: How did the IC50 turn out when `CNC(=O)C1=C(C(C)C)N2C(=NC(C)(c3ccc(Cl)cc3)C2c2ccc(Cl)cc2)S1` (racemic) was run?
Answer: Its IC50 is 1100 nM.

Question: How did the IC50 turn out when `CC(C)C1=C(C(=O)N2CCC[C@H]2C(=O)N2CCOCC2)SC2=N[C@@](C)(c3ccc(Cl)cc3)[C@@H](c3ccc(Cl)cc3)N21` was run?
Answer: The IC50 was 26 nM.

Question: How did the IC50 turn out when `CC(C)C1=C(C(=O)N2CCNC(=O)C2)SC2=NC(C)(c3ccc(Cl)cc3)C(c3ccc(Cl)cc3)N21` (racemic) was run?
Answer: Its IC50 is 410 nM.

Question: With `CC(=O)N1CCN(C(=O)[C@@H]2CCCN2C(=O)C2=C(C(C)C)N3C(=N[C@@](C)(c4ccc(Cl)cc4)[C@H]3c3ccc(Cl)cc3)S2)CC1` as the compound, how does the IC50 read?
Answer: Its IC50 is 66 nM.
